Test results published in a melting point compilation (Tetko et al.).

| Compound | melting point [°C] |
| --- | --- |
| NC(=O)Cc1ccccc1F | 158 to 160 |
| O=C(CC(F)(F)F)c1ccc(F)cc1 | 29 to 31 |
| O=C(O)c1ccc(Cn2cc(Br)cn2)o1 | 128 to 130 |
| O=C(O)c1cc(-c2ccccn2)ccc1Cl | 215 to 217 |
| Cc1cc(Cl)c(CO)c(Cl)n1 | 81 to 83 |
| Cc1ccc(-n2nnc(C(=O)O)c2C)cc1 | 184 to 186 |
| O=S(=O)(Cl)c1ccc(S(=O)(=O)C(F)F)cc1 | 139 to 141 |
| Cc1cc2c(=O)[nH]cnc2s1 | 258 to 260 |
| NC(=O)COc1cccc(C(=O)O)c1 | 223 to 225 |
| CC(=O)N(CCC#N)C(C)C | 59 to 61 |
| Clc1ncnc2c1CCCCC2 | 50 to 52 |
| Cc1c(C(=O)O)oc2ccc(Br)cc12 | 249 to 251 |
| O=S(=O)(Cl)c1ccc(N2CCCS2(=O)=O)cc1 | 184 to 186 |
| COc1ccc(-c2nn(-c3ccccc3)cc2CCl)cc1 | 89 to 91 |
| CNc1nc2ccccc2[nH]1 | 190 to 192 |
| O=C(O)CCc1nc2ccccc2[nH]c1=O | 263 to 265 |
| O=[N+]([O-])CC(c1ccco1)c1c(-c2ccccc2)[nH]c2ccccc12 (stereo unspecified) | 127 to 129 |
| O=C(O)c1ccc2[nH]c(=O)c(=O)[nH]c2c1 | 250 to 252 |
| CCOC(=O)c1c(N)sc(-c2ccccc2)c1C | 94 to 96 |

| Compound | melting point [°C] |
| --- | --- |
| NC(=O)c1cc(Br)c(N)c(Br)c1 | 182 to 184 |
| CCOC(=O)c1ccc(S)nc1 | 135 to 137 |
| Cc1cc2n(n1)C(C(F)(F)F)CCN2 (stereo unspecified) | 169 to 171 |
| CNc1ccc(Cl)nn1 | 194 to 196 |
| Cn1nccc1CO | 58 to 60 |
| O=C(CCl)NCc1ccccc1S(=O)(=O)N1CCCCC1 | 89 to 91 |
| O=C1C=CC(=O)N1C1CCOCC1 | 169 to 171 |
| O=C(O)C1CCCN1c1ncnc2ccccc12 (stereo unspecified) | 139 to 141 |
| COc1ccc(CCC(=O)O)cc1Br | 95 to 97 |
| Oc1cccc(-c2nnc3n2CCCCC3)c1 | 244 to 246 |
| O=C(O)c1ccn(-c2cccc([N+](=O)[O-])c2)n1 | 230 to 232 |
| CCOC(=O)c1cnn(-c2nccs2)c1N | 104 to 106 |
| COC(=O)c1cc(Oc2ccc(F)cc2)c(F)cc1N | 97 to 99 |
| CC1CCc2[nH]c3ccc(C(=O)O)cc3c2C1 (stereo unspecified) | 218 to 220 |
| Nc1cc(Cl)ccc1C(=O)N1CCCCC1 | 103 to 105 |
| CC(=O)c1ccc(Oc2ccc(C(=O)O)cc2)cc1 | 161 to 163 |
| Cn1c(=O)c2[nH]c(Br)nc2n(C)c1=O | 299 to 301 |
| CC(C)(C)Oc1cccc(CCC(=O)O)n1 | 82 to 84 |
| O=C(O)c1cnn2c(-c3ccccc3)ccnc12 | 228 to 230 |

| Compound | melting point [°C] |
| --- | --- |
| O=C(O)C(Oc1ccc(Br)cc1Cl)c1ccccc1 (stereo unspecified) | 135 to 137 |
| Cn1ccc(S(=O)(=O)NCC2(N)CCCCC2)c1 | 94 to 96 |
| COCc1ccc(C(=O)O)o1 | 63 to 65 |
| CC1CCN(S(=O)(=O)c2ccc(C(=O)O)cc2)CC1 | 180 to 182 |
| FC(F)(F)c1ccc2sc(Cl)nc2c1 | 57 to 59 |
| N#Cc1cccc(OCC(=O)O)c1 | 123 to 125 |
| CC(=CC(=O)O)c1ccccc1C(F)(F)F | 133 to 135 |
| O=C(c1ccc(F)cc1)N1CCNCC1 | 74 to 76 |
| Cc1cccc(C)c1Nc1nnc(SCC(=O)O)s1 | 207 to 209 |
| Cc1cc(C)c(C)c(Oc2c(C(=O)O)c(C)nn2C)c1 | 215 to 217 |
| COC(=O)NC(C(=O)O)C(C)C (stereo unspecified) | 83 to 85 |
| Cc1cc(Cn2cc(Br)cn2)oc1C(=O)O | 122 to 124 |
| O=C(CCl)NCCOc1cccc(C(F)(F)F)c1 | 43 to 45 |
| CCN(CC)S(=O)(=O)c1ccc2c(c1)CCCN2 | 131 to 133 |
| CC1=NN(c2cccc(C(F)(F)F)c2)C(=O)C1 | 127 to 129 |
| Nc1ccc(S(=O)(=O)Nc2ccccc2Cl)cc1N | 203 to 205 |
| OCc1cccc2cn[nH]c12 | 201 to 203 |
| Nc1ccc(-c2cc[nH]c2)cc1 | 99 to 101 |
